This note sets out measurements from US20240199654A1, “CTLA-4 SMALL MOLECULE DEGRADATION AGENT AND APPLICATION THEREOF” (SUZHOU GUOKUANG PHARMTECH. CO., LTD., priority 2021, published 2024).

The experiment deals with T1, LRBA and CTLA-4 reporting system (Homo sapiens, UniProt P16410+P50851).
T1 construct: expressed in transfected cells; host or cells: HEK293
The experiment can be described thus: LRBA/CTLA-4 protein-protein interaction reporting system, dual luciferase assay in HEK293 cells. In kind it is cell-based. Conditions: HEK293 cells co-transfected with LRBA and CTLA-4 reporting system, 24 h after dosing; read-out: In vitro activity (IC50: concentration of compounds that inhibit 50% of reporting system activity). The procedure: HEK293 cells were spread on 96-well plates, and LRBA and CTLA-4 reporting system were co-transfected into HEK293 cells after 24 h. After 24 h, different compounds with final concentrations of 0.01, 0.033, 0.10, 0.33, 1.00, 3.33, 10.00, 33.33, and 100.00 μM were added. 24 h after dosing, the cell culture medium was removed and the cells were washed with cold PBS. Then the activity of the compounds were detected by the dual luciferase assay kit, and IC50 values were calculated according to the results.
For the compounds with strong activity (IC50<200 nM), the degradation of CTLA-4 protein was further detected by Western Blot. • IC50: Concentration of compounds that inhibit 50% of reporting system activity The size of IC50 is divided into four levels: • ++++, IC50<200 nM; +++, IC50 is 200-1000 nM; ++, IC50 is 1000-2000 nM; +, IC50>2000 nM.

Structures are written as SMILES. Bounds are passed on as bounds.

T1 sequence (P16410 36-223): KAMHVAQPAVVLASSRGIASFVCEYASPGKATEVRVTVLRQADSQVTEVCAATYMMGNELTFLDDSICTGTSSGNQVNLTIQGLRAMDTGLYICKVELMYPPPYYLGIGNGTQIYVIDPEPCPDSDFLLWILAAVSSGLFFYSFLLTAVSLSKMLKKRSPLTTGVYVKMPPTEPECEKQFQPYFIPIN
T1 sequence (P50851 whole entry): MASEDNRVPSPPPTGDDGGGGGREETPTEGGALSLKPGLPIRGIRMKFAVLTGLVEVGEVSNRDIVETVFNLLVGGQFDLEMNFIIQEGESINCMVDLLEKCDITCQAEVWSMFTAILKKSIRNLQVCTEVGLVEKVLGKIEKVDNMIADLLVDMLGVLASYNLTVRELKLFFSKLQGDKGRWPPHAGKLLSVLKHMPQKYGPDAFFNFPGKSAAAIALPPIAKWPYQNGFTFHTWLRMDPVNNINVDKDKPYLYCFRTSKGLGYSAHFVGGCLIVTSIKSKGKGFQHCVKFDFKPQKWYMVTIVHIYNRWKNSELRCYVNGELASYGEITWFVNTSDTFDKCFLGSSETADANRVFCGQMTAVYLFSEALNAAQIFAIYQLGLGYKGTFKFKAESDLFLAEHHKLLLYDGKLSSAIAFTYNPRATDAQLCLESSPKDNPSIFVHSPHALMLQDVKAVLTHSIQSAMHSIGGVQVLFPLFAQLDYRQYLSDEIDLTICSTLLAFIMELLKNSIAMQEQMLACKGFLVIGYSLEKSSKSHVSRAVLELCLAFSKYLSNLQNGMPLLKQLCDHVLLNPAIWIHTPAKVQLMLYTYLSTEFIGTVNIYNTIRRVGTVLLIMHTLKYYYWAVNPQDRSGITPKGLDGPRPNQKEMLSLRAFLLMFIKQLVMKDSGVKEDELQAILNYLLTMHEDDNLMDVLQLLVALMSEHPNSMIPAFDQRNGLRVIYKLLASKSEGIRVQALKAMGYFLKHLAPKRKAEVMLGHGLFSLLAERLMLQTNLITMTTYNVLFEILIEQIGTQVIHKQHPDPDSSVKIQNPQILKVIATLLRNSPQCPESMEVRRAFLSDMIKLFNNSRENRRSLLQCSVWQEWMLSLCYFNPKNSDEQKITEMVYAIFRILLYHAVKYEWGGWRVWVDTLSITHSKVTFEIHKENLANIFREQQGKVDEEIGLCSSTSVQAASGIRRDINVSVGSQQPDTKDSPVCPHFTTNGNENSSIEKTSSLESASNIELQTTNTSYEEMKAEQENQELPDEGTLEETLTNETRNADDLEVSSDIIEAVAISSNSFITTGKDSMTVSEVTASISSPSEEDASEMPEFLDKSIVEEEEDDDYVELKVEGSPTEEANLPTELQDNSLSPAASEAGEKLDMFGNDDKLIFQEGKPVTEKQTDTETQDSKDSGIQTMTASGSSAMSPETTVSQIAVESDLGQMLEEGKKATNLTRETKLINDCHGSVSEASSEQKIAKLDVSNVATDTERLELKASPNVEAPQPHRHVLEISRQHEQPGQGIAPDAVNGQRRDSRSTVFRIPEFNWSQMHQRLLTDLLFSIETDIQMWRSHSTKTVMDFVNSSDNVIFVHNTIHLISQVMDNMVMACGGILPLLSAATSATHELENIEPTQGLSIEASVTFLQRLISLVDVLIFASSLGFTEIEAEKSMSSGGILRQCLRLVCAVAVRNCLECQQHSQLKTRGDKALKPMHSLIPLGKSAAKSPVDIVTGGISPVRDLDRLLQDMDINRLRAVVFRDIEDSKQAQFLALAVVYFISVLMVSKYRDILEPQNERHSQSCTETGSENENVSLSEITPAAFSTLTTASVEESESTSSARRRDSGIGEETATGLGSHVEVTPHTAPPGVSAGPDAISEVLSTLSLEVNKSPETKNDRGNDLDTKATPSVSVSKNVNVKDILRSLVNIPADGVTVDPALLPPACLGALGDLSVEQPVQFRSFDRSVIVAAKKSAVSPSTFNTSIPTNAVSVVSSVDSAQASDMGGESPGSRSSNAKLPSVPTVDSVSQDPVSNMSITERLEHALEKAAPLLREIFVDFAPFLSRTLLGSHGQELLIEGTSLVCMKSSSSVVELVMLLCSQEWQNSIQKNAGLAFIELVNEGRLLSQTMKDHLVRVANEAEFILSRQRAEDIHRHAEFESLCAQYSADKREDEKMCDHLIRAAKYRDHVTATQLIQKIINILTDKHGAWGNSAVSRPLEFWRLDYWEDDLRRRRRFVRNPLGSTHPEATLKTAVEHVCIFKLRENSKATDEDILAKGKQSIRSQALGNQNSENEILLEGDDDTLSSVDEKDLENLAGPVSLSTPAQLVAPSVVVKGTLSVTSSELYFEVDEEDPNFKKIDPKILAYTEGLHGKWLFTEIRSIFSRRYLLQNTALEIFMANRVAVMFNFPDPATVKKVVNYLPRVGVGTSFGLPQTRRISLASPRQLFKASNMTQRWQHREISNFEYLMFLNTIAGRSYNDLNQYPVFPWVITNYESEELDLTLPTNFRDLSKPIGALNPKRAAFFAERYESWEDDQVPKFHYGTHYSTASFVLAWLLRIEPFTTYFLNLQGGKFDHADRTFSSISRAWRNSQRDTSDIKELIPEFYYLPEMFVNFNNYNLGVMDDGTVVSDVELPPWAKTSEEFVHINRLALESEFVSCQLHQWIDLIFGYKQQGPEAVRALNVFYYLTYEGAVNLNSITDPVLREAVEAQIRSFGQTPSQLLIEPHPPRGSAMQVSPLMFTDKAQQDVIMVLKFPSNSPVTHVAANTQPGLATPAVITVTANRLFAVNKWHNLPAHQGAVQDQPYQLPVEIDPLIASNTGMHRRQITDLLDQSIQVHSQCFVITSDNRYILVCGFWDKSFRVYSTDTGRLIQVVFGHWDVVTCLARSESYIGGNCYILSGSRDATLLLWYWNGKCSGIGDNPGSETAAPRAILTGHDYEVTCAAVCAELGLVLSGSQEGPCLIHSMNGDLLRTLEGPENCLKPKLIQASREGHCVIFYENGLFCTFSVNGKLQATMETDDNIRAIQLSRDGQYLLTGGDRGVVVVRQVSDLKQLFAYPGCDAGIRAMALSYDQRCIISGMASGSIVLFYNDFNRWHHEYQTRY

Regarding `c1ccc2cc(-c3ccnc(N4CCNCC4)n3)ccc2c1` [Comparing compound 1, reference compound], the IC50 was greater than 2000 nM.
In the case of `NCC1CCN(c2nccc(-c3cnc4ccccc4c3)n2)CC1` [Compound 1, (1-(4-(quinolin-3-yl)pyrimidin-2-yl)piperidin-4-yl)methylamine], the IC50 was less than 200 nM.
The value for `O=CNCC1CCN(c2nccc(-c3cnc4ccccc4c3)n2)CC1` [Compound 2, N-((1-(4-(quinolin-3-yl)pyrimidin-2-yl)piperidin-4-yl)methyl)formamide] was greater than 2000 nM; that for `NCC1CCN(c2nccc(-c3ccc4ncccc4c3)n2)CC1` [Compound 3, (1-(4-(quinolin-6-yl)pyrimidin-2-yl)piperidin-4-yl)methylamine] was greater than 2000 nM.
The value for `O=CNCC1CCN(c2nccc(-c3ccc4ncccc4c3)n2)CC1` [Compound 4, N-((1-(4-(quinolin-6-yl)pyrimidin-2-yl)piperidin-4-yl)methyl)formamide] was greater than 2000 nM; that for `NCC1CCN(c2nccc(-c3ccc4ccccc4n3)n2)CC1` [Compound 5, (1-(4-(quinolin-2-yl)pyrimidin-2-yl)piperidin-4-yl)methylamine] was greater than 2000 nM.
In the case of `NCC1CCN(c2nccc(-c3cnc4ccc(F)cc4c3)n2)CC1` [Compound 7, (1-(4-(6-fluoroquinolin-3-yl)pyrimidin-2-yl)piperidin-4-yl)methylamine], the IC50 was 200 to 1000 nM.
For `NCC1CCN(c2nccc(-c3cc4ccccc4nc3N3CCC(CN)CC3)n2)CC1` [Compound 8, (1-(3-(2-(4-(aminomethyl)piperidin-1-yl)pyrimidin-4-yl)quinolin-2-yl)piperidin-4-yl)methylamine] the value was 1000 to 2000 nM; for `COc1nc2ccccc2cc1-c1ccnc(N2CCC(CN)CC2)n1` [Compound 9, (1-(4-(2-methoxyquinolin-3-yl)pyrimidin-2-yl)piperidin-4-yl)methylamine], less than 200 nM.
For the molecule `NCC1CCN(c2nccc(-c3cc4ccccc4nc3O)n2)CC1` [Compound 10, 3-(2-(4-(aminomethyl)piperidin-1-yl)pyrimidin-4-yl)quinolin-2-ol], the IC50 is less than 200 nM.
With `[2H]c1nc2ccccc2cc1-c1ccnc(N2CCC(CN)CC2)n1` [Compound 11, (1-(4-(quinolin-3-yl-2-d)pyrimidin-2-yl)piperidin-4-yl)methylamine], the IC50 was less than 200 nM.
As to `NCC1CCN(c2cc(-c3cnc4ccccc4c3)ccn2)CC1` [Compound 12, (1-(4-(quinolin-3-yl)pyridin-2-yl)piperidin-4-yl)methylamine], the IC50 is greater than 2000 nM.
For the molecule `NCC1CCN(c2nccc(-c3cc(=O)c4ccccc4o3)n2)CC1` [Compound 13, 2-(2-(4-(aminomethyl)piperidin-1-yl)pyrimidin-4-yl)-4hydro-benzopyran-4-one], the IC50 was greater than 2000 nM.
Take `NCC1CCN(c2cccc(-c3cnc4ccccc4c3)n2)CC1` [Compound 14, (1-(6-(quinolin-3-yl)pyridin-2-yl)piperidin-4-yl)methylamine]: the IC50 was greater than 2000 nM.
With `NCC1CCN(c2cccc(-c3cnc4ccccc4c3)c2)CC1` [Compound 15, (1-(3-(quinolin-3-yl)phenyl)piperidin-4-yl)methylamine], the IC50 was greater than 2000 nM.
For `NCC1CCN(c2nccc(-c3cc4ccccc4nc3N)n2)CC1` [Compound 16, 3-(2-(4-(aminomethyl)piperidin-1-yl)pyrimidin-4-yl)quinolin-2-amine], the IC50 was greater than 2000 nM.
For `NC1CCN(c2nccc(-c3cnc4ccccc4c3)n2)CC1` [Compound 17, 1-(4-(quinolin-3-yl)pyrimidin-2-yl)piperidine-4-amine] the value was 200 to 1000 nM; for `NCCC1CCN(c2nccc(-c3cnc4ccccc4c3)n2)CC1` [Compound 19, 2-(1-(4-(quinolin-3-yl)pyrimidin-2-yl)piperidin-4-yl)ethylamine], 200 to 1000 nM; for `OCC1CCN(c2nccc(-c3cnc4ccccc4c3)n2)CC1` [Compound 20, (1-(4-(quinolin-3-yl)pyrimidin-2-yl)piperidin-4-yl)methanol], greater than 2000 nM.
On to `OCCC1CCN(c2nccc(-c3cnc4ccccc4c3)n2)CC1` [Compound 21, (1-(4-(quinolin-3-yl)pyrimidin-2-yl)piperidin-4-yl)ethanol], for which the IC50 is greater than 2000 nM.
Take `C[C@@H]1CN(c2nccc(-c3cnc4ccccc4c3)n2)C[C@H](C)N1` [Compound 22, 3-(2-((3S,5R)-3,5-dimethylpiperazin-1-yl)pyrimidin-4-yl)quinoline]: the IC50 was greater than 2000 nM.
The value for `CN1CCN(c2nccc(-c3cnc4ccccc4c3)n2)CC1` [Compound 23, 3-(2-(4-methylpiperazin-1-yl)pyrimidin-4-yl)quinoline] was greater than 2000 nM.
On to `c1ccc2ncc(-c3ccnc(N4CCCNCC4)n3)cc2c1` [Compound 24, 3-(2-(1,4-diaza-1-yl)pyrimidin-4-yl)quinoline], for which the IC50 is greater than 2000 nM.
Regarding `NCCNc1nccc(-c2cnc3ccccc3c2)n1` [Compound 26, N-(4-(quinolin-3-yl)pyrimidin-2-yl)ethane-1,2-diamine], the IC50 is less than 200 nM.
With `NCCCNc1nccc(-c2cnc3ccccc3c2)n1` [Compound 27, N-(4-(quinolin-3-yl)pyrimidin-2-yl)propane-1,3-diamine], the IC50 was 1000 to 2000 nM.
For `c1cc(-c2cnc3c(c2)OCCO3)nc(N2CCNCC2)n1` [Compound 28, 7-(2-(piperazin-1-yl)pyrimidin-4-yl)-2,3-dihydro-[1,4]dioxy[2,3-b]pyridine], the IC50 is greater than 2000 nM.
For `c1cc(-c2ccc3c(c2)OCCO3)nc(N2CCNCC2)n1` [Compound 29, 4-(2,3-dihydrobenzo[b][1,4]dioxin-6-yl)-2-(piperazin-1-yl)pyrimidine] the value was greater than 2000 nM; for `COc1cc(-c2ccnc(N3CCNCC3)n2)cnc1OC` [Compound 30, 4-(5,6-dimethoxy-pyridin-3-yl)-2-piperazin-1-yl-pyrimidine], greater than 2000 nM.
With `COc1ccc(-c2ccnc(N3CCNCC3)n2)cc1OC` [Compound 31, 4-(3,4-dimethoxy-phenyl)-2-piperazin-1-yl-pyrimidine], the IC50 is greater than 2000 nM.
Regarding `c1ccc2c(-c3ccnc(N4CCNCC4)n3)c[nH]c2c1` [Compound 32, 3-(2-(piperazin-1-yl)pyrimidin-4-yl)-1H-indole], the IC50 lay in the range of 200 to 1000 nM.
As to `c1ccc2c(-c3ccnc(N4CCNCC4)n3)coc2c1` [Compound 33, 4-(benzofuran-3-yl)-2-(piperazin-1-yl)pyrimidine], the IC50 is 200 to 1000 nM.
For the molecule `COc1cc(-c2ccnc(N3CCNCC3)n2)cnc1O` [Compound 34, 3-methoxy-5-(2-piperazin-1-yl-pyrimidin-4-yl)-pyridin-2-ol], the IC50 is greater than 2000 nM.
Consider `c1ccc2ncc(-c3ncnc(N4CCNCC4)n3)cc2c1` [Compound 35, 3-(4-(piperazin-1-yl)-1,3,5-triazin-2-yl)quinoline], for which the IC50 is less than 200 nM.
For the molecule `c1ccc2ncc(-c3nc(N4CCNCC4)nc4ccccc34)cc2c1` [Compound 36, 2-(piperazin-1-yl)-4-(quinolin-3-yl)quinazoline], the IC50 fell in the range of 200 to 1000 nM.
As for `c1ccc2ncc(-c3nc(N4CCNCC4)nc4c3CCCC4)cc2c1` [Compound 37, 2-(piperazin-1-yl)-4-(quinolin-3-yl)-5,6,7,8-tetrahydroquinazoline], the IC50 lay in the range of 200 to 1000 nM.
For `Nc1cnc(N2CCNCC2)nc1-c1cnc2ccccc2c1` [Compound 38, 3-(5-amino-2-(piperazin-1-yl)pyrimidin-4-yl)quinoline] the value was less than 200 nM.
The value for `COc1cc(-c2cnc3ccccc3c2)nc(N2CCNCC2)n1` [Compound 39, 3-(6-methoxy-2-(piperazin-1-yl)pyrimidin-4-yl)quinoline] was less than 200 nM; that for `FC(F)(F)c1cc(-c2cnc3ccccc3c2)nc(N2CCNCC2)n1` [Compound 40, 3-(2-(piperazin-1-yl)-6-(trifluoromethyl)pyrimidin-4-yl)quinoline] was less than 200 nM; that for `c1ccc2ncc(-c3cc4nccn4c(N4CCNCC4)n3)cc2c1` [Compound 41, 3-(5-(piperazin-1-yl)imidazo[1,2-c]pyrimidin-7-yl)quinoline] was 200 to 1000 nM.
With `N#Cc1cc(-c2cnc3ccccc3c2)nc(N2CCNCC2)n1` [Compound 42, 3-(6-cyano-2-(piperazin-1-yl)pyrimidin-4-yl)quinoline], the IC50 is less than 200 nM.
`COc1cnc(N2CCNCC2)nc1-c1cnc2ccccc2c1` [Compound 43, 3-(5-methoxy-2-(piperazin-1-yl)pyrimidin-4-yl)quinoline]: the IC50 was less than 200 nM.
The value for `Cn1cnc2c(-c3cnc4ccccc4c3)nc(N3CCNCC3)nc21` [Compound 45, 3-(9-methyl-2-(piperazin-1-yl)-9H-purin-6-yl)quinoline] was 200 to 1000 nM; that for `Fc1cnc(N2CCNCC2)nc1-c1cnc2ccccc2c1` [Compound 46, 3-(5-fluoro-2-(piperazin-1-yl)pyrimidin-4-yl)quinoline] was less than 200 nM; that for `Nc1cc(-c2cnc3ccccc3c2)nc(N2CCNCC2)n1` [Compound 47, 2-(piperazin-1-yl)-6-(quinolin-3-yl)pyrimidin-4-amine] was less than 200 nM.
For `Nc1cc(N2CCNCC2)nc(-c2cnc3ccccc3c2)n1` [Compound 48, 6-(piperazin-1-yl)-2-(quinolin-3-yl)pyrimidin-4-amine] the value was 1000 to 2000 nM.
